Measurements reported in ChEMBL document CHEMBL1154822, “Synthesis and antiproliferative activity of 7-azaindirubin-3'-oxime, a 7-aza isostere of the natural indirubin pharmacophore” (J Nat Prod, 2009).

Columns and labels:
Assay type in all cases: functional
[1] = tested on: HCC 2998; test: Cytotoxicity against human HCC2998 cells assessed as cell growth at 10 uM after 48 hrs by MTT assay; conditions: HCC 2998, 48 h, read-out: Activity
[2] = tested on: IGROV-1; test: Cytotoxicity against human IGROV1 cells assessed as cell growth at 0.1 uM after 1 to 11 days by MTT assay; conditions: read-out: Activity
[3] = tested on: 786-0; test: Cytotoxicity against human 786-0 cells assessed as cell growth at 10 uM after 1 to 11 days by MTT assay; conditions: read-out: Activity
[4] = tested on: UACC-257; test: Cytotoxicity against human UACC257 cells after 1 to 11 days by MTT assay
[5] = tested on: COLO 205; test: Cytotoxicity against human COLO205 cells assessed as cell growth at 100 uM after 1 to 11 days by MTT assay; conditions: read-out: Activity
[6] = tested on: A498; test: Cytotoxicity against human A498 cells assessed as cell growth at 10 uM after 1 to 11 days by MTT assay; conditions: read-out: Activity
[7] = tested on: MDA-MB-468; test: Cytotoxicity against human MDA-MB-468 cells after 1 to 11 days by MTT assay
[8] = tested on: HT-29; test: Cytotoxicity against human HT-29 cells assessed as cell growth at 100 uM after 1 to 11 days by MTT assay; conditions: read-out: Activity
[9] = tested on: UACC-62; test: Cytotoxicity against human UACC62 cells assessed as cell growth at 0.1 uM after 1 to 11 days by MTT assay; conditions: read-out: Activity
[10] = tested on: IGROV-1; test: Cytotoxicity against human IGROV1 cells assessed as cell growth at 1 uM after 1 to 11 days by MTT assay; conditions: read-out: Activity
[11] = tested on: SNB-19; test: Cytotoxicity against human SNB19 cells assessed as cell growth at 0.1 uM after 1 to 11 days by MTT assay; conditions: read-out: Activity
[12] = tested on: CCRF-CEM; test: Cytotoxicity against human CCRF-CEM cells assessed as cell growth at 1 uM after 1 to 11 days by MTT assay; conditions: read-out: Activity
[13] = tested on: OVCAR-4; test: Cytotoxicity against human OVCAR4 cells assessed as cell growth at 10 uM after 1 to 11 days by MTT assay; conditions: read-out: Activity
[14] = tested on: UO-31; test: Cytotoxicity against human UO31 cells assessed as cell growth at 1 mM after 1 to 11 days by MTT assay; conditions: read-out: Activity
[15] = tested on: SK-OV-3; test: Cytotoxicity against human SKOV3 cells assessed as cell growth at 100 uM after 1 to 11 days by MTT assay; conditions: read-out: Activity
[16] = tested on: HCT-15; test: Cytotoxicity against human HCT15 cells assessed as cell growth at 1 uM after 1 to 11 days by MTT assay; conditions: read-out: Activity
[17] = tested on: OVCAR-5; test: Cytotoxicity against human OVCAR5 cells assessed as cell growth at 100 uM after 1 to 11 days by MTT assay; conditions: read-out: Activity
[18] = tested on: IGROV-1; test: Cytotoxicity against human IGROV1 cells assessed as cell growth at 1 mM after 1 to 11 days by MTT assay; conditions: read-out: Activity
[19] = tested on: DU-145; test: Cytotoxicity against human DU145 cells assessed as cell growth at 0.1 uM after 1 to 11 days by MTT assay; conditions: read-out: Activity
[20] = tested on: NCI-H460; test: Cytotoxicity against human NCI-H460 cells assessed as cell growth at 100 uM after 1 to 11 days by MTT assay; conditions: read-out: Activity
[21] = tested on: NCI/ADR-RES; test: Cytotoxicity against human NCI/ADR-RES cells assessed as cell growth at 100 uM after 1 to 11 days by MTT assay; conditions: read-out: Activity
[22] = tested on: M14; test: Cytotoxicity against human M14 cells assessed as cell growth at 0.1 uM after 1 to 11 days by MTT assay; conditions: read-out: Activity
[23] = tested on: 786-0; test: Cytotoxicity against human 786-0 cells assessed as cell growth at 1 mM after 1 to 11 days by MTT assay; conditions: read-out: Activity
[24] = tested on: HT-29; test: Cytotoxicity against human HT-29 cells assessed as cell growth at 0.1 uM after 1 to 11 days by MTT assay; conditions: read-out: Activity
[25] = tested on: SR; test: Cytotoxicity against human SR cells assessed as cell growth at 0.1 uM after 1 to 11 days by MTT assay; conditions: read-out: Activity
[26] = tested on: 786-0; test: Cytotoxicity against human 786-0 cells after 1 to 11 days by MTT assay
[27] = tested on: HOP-92; test: Cytotoxicity against human HOP92 cells assessed as cell growth at 0.1 uM after 1 to 11 days by MTT assay; conditions: read-out: Activity
[28] = tested on: UACC-257; test: Cytotoxicity against human UACC257 cells assessed as cell growth at 100 uM after 1 to 11 days by MTT assay; conditions: read-out: Activity
[29] = tested on: HOP-92; test: Cytotoxicity against human HOP92 cells assessed as cell growth at 1 mM after 1 to 11 days by MTT assay; conditions: read-out: Activity
[30] = tested on: SW-620; test: Cytotoxicity against human SW620 cells assessed as cell growth at 1 mM after 1 to 11 days by MTT assay; conditions: read-out: Activity
[31] = tested on: NCI-H460; test: Cytotoxicity against human NCI-H460 cells after 1 to 11 days by MTT assay
[32] = tested on: HCT-15; test: Cytotoxicity against human HCT15 cells assessed as cell growth at 100 uM after 1 to 11 days by MTT assay; conditions: read-out: Activity
[33] = tested on: COLO 205; test: Cytotoxicity against human COLO205 cells assessed as cell growth at 1 uM after 1 to 11 days by MTT assay; conditions: read-out: Activity
[34] = tested on: NCI-H226; test: Cytotoxicity against human NCI-H226 cells assessed as cell growth at 1 uM after 1 to 11 days by MTT assay; conditions: read-out: Activity
[35] = tested on: HT-29; test: Cytotoxicity against human HT-29 cells assessed as cell growth at 10 uM after 1 to 11 days by MTT assay; conditions: read-out: Activity
[36] = Cytotoxicity against human Hs 578T cells assessed as cell growth at 10 uM after 1 to 11 days by MTT assay; conditions: read-out: Activity
[37] = tested on: SK-MEL-5; test: Cytotoxicity against human SK-MEL-5 cells assessed as cell growth at 100 uM after 1 to 11 days by MTT assay; conditions: read-out: Activity
[38] = tested on: NCI-H322M; test: Cytotoxicity against human NCI-H322M cells after 1 to 11 days by MTT assay
[39] = tested on: MCF7; test: Cytotoxicity against human MCF7 cells assessed as cell growth at 1 mM after 1 to 11 days by MTT assay; conditions: read-out: Activity
[40] = tested on: K562; test: Cytotoxicity against human K562 cells assessed as cell growth at 0.1 uM after 1 to 11 days by MTT assay; conditions: read-out: Activity
[41] = tested on: DU-145; test: Cytotoxicity against human DU145 cells assessed as cell growth at 1 uM after 1 to 11 days by MTT assay; conditions: read-out: Activity
[42] = tested on: NCI/ADR-RES; test: Cytotoxicity against human NCI/ADR-RES cells after 1 to 11 days by MTT assay
[43] = tested on: OVCAR-8; test: Cytotoxicity against human OVCAR8 cells assessed as cell growth at 0.1 uM after 1 to 11 days by MTT assay; conditions: read-out: Activity
[44] = tested on: HCC 2998; test: Cytotoxicity against human HCC2998 cells assessed as cell growth at 100 uM after 1 to 11 days by MTT assay; conditions: read-out: Activity
[45] = read-out: LC50 (the source's name)

`O=C1Nc2ncccc2/C1=C1/Nc2ccccc2C1=O` showed a growth at 10 µM [1] of 25.3%.
In the case of `O=C1Nc2ncccc2/C1=C1/Nc2ccccc2/C1=N\O`, the growth at 0.1 µM [2] is reported as 102%, the growth at 10 µM [3] is reported as 114% and the GI50 [4] is reported as greater than 100 µM. For the same molecule, the TGI [4] was greater than 100 µM, the CC50 [4, 45] was greater than 100 µM and the growth at 100 µM [5] was 59%. For the same molecule, the growth at 10 µM [6] was 63%, the GI50 [7] was 3.01 µM and the TGI [7] was greater than 100 µM. It also gave a CC50 [7, 45] greater than 100 µM, a growth at 100 µM [8] of 81% and a growth at 0.1 µM [9] of 94%. For the same molecule, the growth at 1 µM [10] was 84%, the growth at 0.1 µM [11] was 94% and the growth at 1 µM [12] was 76%. It also gave a growth at 10 µM [13] of 96%, a growth at 1000 µM [14] of 11% and a growth at 100 µM [15] of -6%. For the same molecule, the growth at 1 µM [16] was 96%, the growth at 100 µM [17] was 88% and the growth at 1000 µM [18] was 12%. It also gave a growth at 0.1 µM [19] of 102%, a growth at 100 µM [20] of 41% and a growth at 100 µM [21] of 57%. It also gave a growth at 0.1 µM [22] of 95%, a growth at 1000 µM [23] of 39% and a growth at 0.1 µM [24] of 99%. For the same molecule, the growth at 0.1 µM [25] was 109%, the GI50 [26] was 7.46 µM and the CC50 [26, 45] was greater than 100 µM. For the same molecule, the growth at 0.1 µM [27] was 102%, the growth at 100 µM [28] was 79% and the growth at 1000 µM [29] was 44%. For the same molecule, the growth at 1000 µM [30] was 39%, the GI50 [31] was 7.02 µM and the TGI [31] was greater than 100 µM. It also gave a CC50 [31, 45] greater than 100 µM, a growth at 100 µM [32] of 27% and a growth at 1 µM [33] of 87%. The growth at 1 µM [34] was 84%, the growth at 10 µM [35] was 99% and the growth at 10 µM [36] was 78%. It also gave a growth at 100 µM [37] of 49%, a GI50 [38] of 1.35 µM and a TGI [38] greater than 100 µM. For the same molecule, the CC50 [38, 45] was greater than 100 µM, the growth at 1000 µM [39] was 41% and the growth at 0.1 µM [40] was 88%. For the same molecule, the growth at 1 µM [41] was 102%, the GI50 [42] was greater than 100 µM and the TGI [42] was greater than 100 µM. The CC50 [42, 45] was greater than 100 µM, the growth at 0.1 µM [43] was 79% and the growth at 100 µM [44] was 39%.
